This passage reports IC50 results from US11286263B2, “Macrocyclic fluorine substituted indole derivatives” (The Broad Institute, Inc., priority 2017, dated 2022).

Structures can show the parent of a compound that is named as a salt.

By IC50 is commonly meant the concentration at which inhibition is half-maximal. A lower IC50 goes with greater potency in that assay.

The test has as its target MCL-1 (Homo sapiens (Human), UniProt Q07820, K194A/K197A/R201A). Description: Protein-protein interaction assay MCL-1/Noxa BH3 peptide (MCL-1 assay), TR-FRET. It is filed as binding. The settings on record: MCL-1/Noxa BH3 peptide TR-FRET; median. In short, it runs like this: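 TR-FRET competition between MBP-MCL-1 (173-321, 1 nM) and biotin-Noxa BH3 peptide (1 nM) with anti-MBP-Eu/streptavidin-XL665; 11 compound levels 0.1 nM–20 μM, 10 min preincubation. Incubated 1 h at 22 °C then overnight at 4 °C, pH 7 Tris buffer. 665/620 ratio normalized to DMSO and no-MCL-1; 4-parameter IC50.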
For orientation: Time-resolved FRET reads energy transfer from a long-lived donor to a nearby acceptor.

MCL-1, sequence (Q07820 whole entry K194A/K197A/R201A, looked up): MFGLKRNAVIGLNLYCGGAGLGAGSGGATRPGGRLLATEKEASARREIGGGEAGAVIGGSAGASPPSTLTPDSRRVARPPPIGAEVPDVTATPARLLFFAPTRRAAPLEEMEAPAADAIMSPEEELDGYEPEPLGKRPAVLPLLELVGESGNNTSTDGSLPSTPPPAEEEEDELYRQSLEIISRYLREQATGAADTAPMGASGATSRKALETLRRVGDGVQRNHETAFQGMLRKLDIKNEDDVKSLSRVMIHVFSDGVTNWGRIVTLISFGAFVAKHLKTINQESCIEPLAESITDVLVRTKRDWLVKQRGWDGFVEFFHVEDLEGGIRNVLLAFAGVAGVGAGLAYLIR

Molecule `CCc1c2c(nn1C)CN(C)CCCCn1c(C(=O)O)c(CCCOc3cccc4c3CCCC4)c3ccc(F)c-2c31` (racemic) [Example 52, (rac)-3-ethyl-4-fluoro-2,14-dimethyl-7-[3-(5,6,7,8-tetrahydronaphthalen-1-yloxy)propyl]-10,11,12,13,14,15-hexahydro-2H-pyrazolo[3′,4′:8,9][1,6]diazacycloundecino[10,11,1-hi]indole-8-carboxylic acid] returned an IC50 of 1.7 nM.
For `CCc1c2c(nn1C)CN(C)CCCCn1c(C(=O)O)c(CCCOc3cccc4cc(F)ccc34)c3ccc(F)c-2c31` (racemic) [Example 53, (rac)-3-ethyl-4-fluoro-7-{3-[(6-fluoro-1-naphthyhoxy]propyl}-2,14-dimethyl-10,11,12,13,14,15-hexahydro-2H-pyrazolo[3′,4′:8,9][1,6]diazacycloundecino[10,11,1-hi]indole-8-carboxylic acid], the IC50 worked out at 0.91 nM.
In the case of `CCc1c2c(nn1C)CN(C)CCCCn1c(C(=O)O)c(CCCOc3cccc4ccccc34)c3ccc(F)c-2c31` (racemic) [Example 54, (rac)-3-ethyl-4-fluoro-2,14-dimethyl-7-[3-(1-naphthyloxy)propyl]-10,11,12,13,14,15-hexahydro-2H-pyrazolo[3′,4′:8,9][1,6]diazacycloundecino[10,11,1-hi]indole-8-carboxylic acid], the half-maximal inhibitory concentration (IC50) is 0.72 nM.
Turning to `Cc1c2c(nn1C)COCCCCn1c(C(=O)O)c(CCCOc3cccc4ccccc34)c3ccc(F)c-2c31` (single isomer, unassigned; enantiomer 1) [Example 3, 4-fluoro-2,3-dimethyl-7-[3-(naphthalen-1-yloxy)propyl]-2,10,11,12,13,15-hexahydropyrazolo-[4′,3′:9,10][1,6]oxazacycloundecino[8,7,6-hi]indole-8-carboxylic acid-N-ethylethanamine salt (enantiomer 1)], the IC50 amounted to 1.3 nM.
Consider `CCc1c2c(nn1C)COCCCCn1c(C(=O)O)c(CCCOc3cccc4ccccc34)c3ccc(F)c-2c31` (single isomer, unassigned; enantiomer 1) [Example 7, 3-ethyl-4-fluoro-2-methyl-7-{3-[(naphthalen-1-yl)oxy]propyl}-2,10,11,12,13,15-hexahydro-pyrazolo[4′,3′:9,10][1,6]oxazacycloundecino[8,7,6-hi]indole-8-carboxylic acid-N-ethylethanamine salt (enantiomer 1)], for which the IC50 stood at 0.97 nM.
As for `Cc1c2c(nn1C)COCCCCn1c(C(=O)O)c(CCCOc3cccc4cc(F)ccc34)c3ccc(F)c-2c31` (single isomer, unassigned; enantiomer 1) [Example 13, 4-fluoro-7-{3-[(6-fluoronaphthalen-1-yl)oxy]propyl}-2,3-dimethyl-2,10,11,12,13,15-hexahydro-pyrazolo[4′,3′:9,10][1,6]oxazacycloundecino[8,7,6-hi]indole-8-carboxylic acid-N-ethylethanamine salt (enantiomer 1)], the figure is 0.98 nM.
In the case of `Cc1c2c(nn1C)COCCCCn1c(C(=O)O)c(CCCOc3ccc(F)c4ccccc34)c3ccc(F)c-2c31` (single isomer, unassigned; enantiomer 1) [Example 16, 4-fluoro-7-{3-[(4-fluoronaphthalen-1-yl)oxy]propyl}-2,3-dimethyl-2,10,11,12,13,15-hexahydro-pyrazolo[4′,3′:9,10][1,6]oxazacycloundecino[8,7,6-hi]indole-8-carboxylic acid (enantiomer 1)], the IC50 was determined as 1.9 nM.
Take `CCc1c2c(nn1C)COCCCCn1c(C(=O)O)c(CCCOc3cccc4cc(F)ccc34)c3ccc(F)c-2c31` (single isomer, unassigned; enantiomer 1) [Example 22, 3-ethyl-4-fluoro-7-{3-[(6-fluoronaphthalen-1-yl)oxy]propyl}-2-methyl-2,10,11,12,13,15-hexahydropyrazolo[4′,3′:9,10][1,6]oxazacycloundecino[8,7,6-hi]indole-8-carboxylic acid-N-ethylethanamine salt (enantiomer 1)]: the IC50 was 0.45 nM.
